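Interpolation was linear, between the two tested concentrations surrounding the appropriate level; five concentrations were tested over 48 hours in 96-well plates. TGI is the concentration that stops growth completely.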
What was measured:
Test in all cases: NCI-60 cell line screen, 48 h
UACC-62 melanoma = system: UACC-62 melanoma
T-47D breast = system: T-47D breast
SF-268 CNS = system: SF-268 CNS
SK-MEL-2 melanoma = system: SK-MEL-2 melanoma
DU-145 prostate = system: DU-145 prostate
RPMI-8226 leukemia = system: RPMI-8226 leukemia
HOP-92 NSCLC = system: HOP-92 NSCLC
SW-620 colon = system: SW-620 colon
KM12 colon = system: KM12 colon
A498 renal = system: A498 renal
MDA-MB-435 = system: MDA-MB-435
IGROV1 ovarian = system: IGROV1 ovarian
786-0 renal = system: 786-0 renal
SR leukemia = system: SR leukemia
A549 NSCLC = system: A549 NSCLC
PC-3 prostate = system: PC-3 prostate
HOP-62 NSCLC = system: HOP-62 NSCLC
HT29 colon = system: HT29 colon
ACHN renal = system: ACHN renal
SNB-75 CNS = system: SNB-75 CNS
CCRF-CEM leukemia = system: CCRF-CEM leukemia
UACC-257 melanoma = system: UACC-257 melanoma
COLO 205 colon = system: COLO 205 colon
UO-31 renal = system: UO-31 renal
MALME-3M melanoma = system: MALME-3M melanoma
SK-MEL-5 melanoma = system: SK-MEL-5 melanoma
NCI/ADR-RES ovarian = system: NCI/ADR-RES ovarian
OVCAR-3 ovarian = system: OVCAR-3 ovarian
BT-549 breast = system: BT-549 breast
NCI-H23 lung = system: NCI-H23 lung
SF-295 CNS = system: SF-295 CNS
HCC-2998 colon = system: HCC-2998 colon
HCT-15 colon = system: HCT-15 colon
SN12C renal = system: SN12C renal
EKVX NSCLC = system: EKVX NSCLC
HL-60(TB) leukemia = system: HL-60(TB) leukemia
K-562 leukemia = system: K-562 leukemia
HS 578T breast = system: HS 578T breast
OVCAR-4 ovarian = system: OVCAR-4 ovarian
NCI-H460 lung = system: NCI-H460 lung
CAKI-1 renal = system: CAKI-1 renal
HCT-116 colon = system: HCT-116 colon
OVCAR-8 ovarian = system: OVCAR-8 ovarian
M14 melanoma = system: M14 melanoma
SF-539 CNS = system: SF-539 CNS
NCI-H522 lung = system: NCI-H522 lung
OVCAR-5 ovarian = system: OVCAR-5 ovarian
MDA-MB-231 breast = system: MDA-MB-231 breast
U251 CNS = system: U251 CNS
SNB-19 CNS = system: SNB-19 CNS
SK-OV-3 ovarian = system: SK-OV-3 ovarian
SK-MEL-28 melanoma = system: SK-MEL-28 melanoma
RXF 393 renal = system: RXF 393 renal
MCF7 breast = system: MCF7 breast
LOX IMVI melanoma = system: LOX IMVI melanoma
NCI-H226 lung = system: NCI-H226 lung
MDA-N = system: MDA-N
MOLT-4 leukemia = system: MOLT-4 leukemia
TK-10 renal = system: TK-10 renal

Structure (SMILES): CC(=O)Nc1ccc(S(=O)(=O)/N=C2\C=CC(=O)c3ccccc32)cc1
- TGI (UACC-62 melanoma): 12.2 µM
- TGI (T-47D breast): > 83 µM
- TGI (SF-268 CNS): 17.2 µM
- TGI (SK-MEL-2 melanoma): 32.1 µM
- TGI (DU-145 prostate): > 57.2 µM
- TGI (RPMI-8226 leukemia): 25.9 µM
- TGI (HOP-92 NSCLC): 21.7 µM
- TGI (SW-620 colon): 47.6 µM
- TGI (KM12 colon): 40.5 µM
- TGI (A498 renal): 21.2 µM
- TGI (MDA-MB-435): 3.36 µM
- TGI (IGROV1 ovarian): 10.7 µM
- TGI (786-0 renal): 26.4 µM
- TGI (SR leukemia): 11.8 µM
- TGI (A549 NSCLC): 29.7 µM
- TGI (PC-3 prostate): 15.4 µM
- TGI (HOP-62 NSCLC): 22.8 µM
- TGI (HT29 colon): 33.7 µM
- TGI (ACHN renal): 16.4 µM
- TGI (SNB-75 CNS): 14.1 µM
- TGI (CCRF-CEM leukemia): 27.7 µM
- TGI (UACC-257 melanoma): 12.4 µM
- TGI (COLO 205 colon): 26.9 µM
- TGI (UO-31 renal): 20 µM
- TGI (MALME-3M melanoma): 9.66 µM
- TGI (SK-MEL-5 melanoma): 8.7 µM
- TGI (NCI/ADR-RES ovarian): 22.9 µM
- TGI (OVCAR-3 ovarian): 10.3 µM
- TGI (BT-549 breast): 25.3 µM
- TGI (NCI-H23 lung): 13.3 µM
- TGI (SF-295 CNS): 15.1 µM
- TGI (HCC-2998 colon): 10.7 µM
- TGI (HCT-15 colon): 16.1 µM
- TGI (SN12C renal): 11.9 µM
- TGI (EKVX NSCLC): 22 µM
- TGI (HL-60(TB) leukemia): 11.2 µM
- TGI (K-562 leukemia): 9.13 µM
- TGI (HS 578T breast): 26.1 µM
- TGI (OVCAR-4 ovarian): 8.6 µM
- TGI (NCI-H460 lung): 28.5 µM
- TGI (CAKI-1 renal): 35.7 µM
- TGI (HCT-116 colon): 22.8 µM
- TGI (OVCAR-8 ovarian): 9.13 µM
- TGI (M14 melanoma): 11.1 µM
- TGI (SF-539 CNS): 15.6 µM
- TGI (NCI-H522 lung): 29 µM
- TGI (OVCAR-5 ovarian): 20.6 µM
- TGI (MDA-MB-231 breast): 10.7 µM
- TGI (U251 CNS): 14.2 µM
- TGI (SNB-19 CNS): 28.3 µM
- TGI (SK-OV-3 ovarian): 33.8 µM
- TGI (SK-MEL-28 melanoma): 24.4 µM
- TGI (RXF 393 renal): 15.6 µM
- TGI (MCF7 breast): 12.2 µM
- TGI (LOX IMVI melanoma): 15.2 µM
- TGI (NCI-H226 lung): 18.1 µM
- TGI (MDA-N): 3.59 µM
- TGI (MOLT-4 leukemia): 1.25 µM
- TGI (TK-10 renal): 36.9 µM

Structure (SMILES): Cc1cn(C2OC(CO)C(O)C2O)c(=O)[nH]c1=O (configuration not stated)
- TGI (UACC-62 melanoma): > 1000 µM
- TGI (T-47D breast): > 1000 µM
- TGI (SF-268 CNS): > 1000 µM
- TGI (SK-MEL-2 melanoma): > 1000 µM
- TGI (DU-145 prostate): > 1000 µM
- TGI (RPMI-8226 leukemia): > 1000 µM
- TGI (HOP-92 NSCLC): > 1000 µM
- TGI (SW-620 colon): > 1000 µM
- TGI (KM12 colon): > 1000 µM
- TGI (A498 renal): > 1000 µM
- TGI (MDA-MB-435): > 1000 µM
- TGI (IGROV1 ovarian): > 1000 µM
- TGI (786-0 renal): > 1000 µM
- TGI (SR leukemia): > 1000 µM
- TGI (A549 NSCLC): > 1000 µM
- TGI (PC-3 prostate): > 1000 µM
- TGI (HOP-62 NSCLC): > 1000 µM
- TGI (HT29 colon): > 1000 µM
- TGI (ACHN renal): > 1000 µM
- TGI (SNB-75 CNS): > 1000 µM
- TGI (CCRF-CEM leukemia): > 1000 µM
- TGI (UACC-257 melanoma): > 1000 µM
- TGI (COLO 205 colon): > 1000 µM
- TGI (UO-31 renal): > 1000 µM
- TGI (MALME-3M melanoma): > 1000 µM
- TGI (SK-MEL-5 melanoma): > 1000 µM
- TGI (NCI/ADR-RES ovarian): > 1000 µM
- TGI (OVCAR-3 ovarian): > 1000 µM
- TGI (BT-549 breast): > 1000 µM
- TGI (NCI-H23 lung): > 1000 µM
- TGI (SF-295 CNS): > 1000 µM
- TGI (HCC-2998 colon): > 1000 µM
- TGI (HCT-15 colon): > 1000 µM
- TGI (SN12C renal): > 1000 µM
- TGI (EKVX NSCLC): > 1000 µM
- TGI (HL-60(TB) leukemia): > 1000 µM
- TGI (K-562 leukemia): > 1000 µM
- TGI (HS 578T breast): > 1000 µM
- TGI (OVCAR-4 ovarian): > 1000 µM
- TGI (NCI-H460 lung): > 1000 µM
- TGI (CAKI-1 renal): > 1000 µM
- TGI (HCT-116 colon): > 1000 µM
- TGI (OVCAR-8 ovarian): > 1000 µM
- TGI (M14 melanoma): > 1000 µM
- TGI (SF-539 CNS): > 1000 µM
- TGI (NCI-H522 lung): > 1000 µM
- TGI (OVCAR-5 ovarian): > 1000 µM
- TGI (MDA-MB-231 breast): > 1000 µM
- TGI (U251 CNS): > 1000 µM
- TGI (SNB-19 CNS): > 1000 µM
- TGI (SK-OV-3 ovarian): > 1000 µM
- TGI (SK-MEL-28 melanoma): > 1000 µM
- TGI (RXF 393 renal): > 1000 µM
- TGI (MCF7 breast): > 1000 µM
- TGI (LOX IMVI melanoma): > 1000 µM
- TGI (NCI-H226 lung): > 1000 µM
- TGI (MDA-N): > 1000 µM
- TGI (MOLT-4 leukemia): > 1000 µM
- TGI (TK-10 renal): > 1000 µM

Structure (SMILES): NC(Cc1cnc(I)[nH]1)C(=O)O (configuration not stated)
- TGI (UACC-62 melanoma): > 100 µM
- TGI (T-47D breast): > 100 µM
- TGI (SF-268 CNS): > 100 µM
- TGI (SK-MEL-2 melanoma): > 100 µM
- TGI (DU-145 prostate): > 100 µM
- TGI (RPMI-8226 leukemia): > 100 µM
- TGI (HOP-92 NSCLC): 82.9 µM
- TGI (SW-620 colon): > 100 µM
- TGI (KM12 colon): > 100 µM
- TGI (A498 renal): > 100 µM
- TGI (MDA-MB-435): > 100 µM
- TGI (IGROV1 ovarian): > 100 µM
- TGI (786-0 renal): > 100 µM
- TGI (SR leukemia): > 100 µM
- TGI (A549 NSCLC): > 100 µM
- TGI (PC-3 prostate): > 100 µM
- TGI (HOP-62 NSCLC): > 100 µM
- TGI (HT29 colon): > 100 µM
- TGI (ACHN renal): > 100 µM
- TGI (SNB-75 CNS): > 100 µM
- TGI (CCRF-CEM leukemia): > 100 µM
- TGI (UACC-257 melanoma): > 100 µM
- TGI (COLO 205 colon): > 100 µM
- TGI (UO-31 renal): > 100 µM
- TGI (MALME-3M melanoma): 75.2 µM
- TGI (SK-MEL-5 melanoma): > 100 µM
- TGI (NCI/ADR-RES ovarian): > 100 µM
- TGI (OVCAR-3 ovarian): > 100 µM
- TGI (BT-549 breast): > 100 µM
- TGI (NCI-H23 lung): > 100 µM
- TGI (SF-295 CNS): > 100 µM
- TGI (HCC-2998 colon): > 100 µM
- TGI (HCT-15 colon): > 100 µM
- TGI (SN12C renal): > 100 µM
- TGI (EKVX NSCLC): > 100 µM
- TGI (HL-60(TB) leukemia): 6.41 µM
- TGI (K-562 leukemia): > 100 µM
- TGI (HS 578T breast): 63.8 µM
- TGI (OVCAR-4 ovarian): > 100 µM
- TGI (NCI-H460 lung): > 100 µM
- TGI (CAKI-1 renal): > 100 µM
- TGI (HCT-116 colon): > 100 µM
- TGI (OVCAR-8 ovarian): > 100 µM
- TGI (M14 melanoma): > 100 µM
- TGI (SF-539 CNS): > 100 µM
- TGI (NCI-H522 lung): 72.9 µM
- TGI (OVCAR-5 ovarian): > 100 µM
- TGI (MDA-MB-231 breast): > 100 µM
- TGI (U251 CNS): > 100 µM
- TGI (SNB-19 CNS): > 100 µM
- TGI (SK-OV-3 ovarian): > 100 µM
- TGI (SK-MEL-28 melanoma): > 100 µM
- TGI (RXF 393 renal): > 100 µM
- TGI (MCF7 breast): > 100 µM
- TGI (LOX IMVI melanoma): > 100 µM
- TGI (NCI-H226 lung): > 100 µM
- TGI (MDA-N): > 100 µM
- TGI (MOLT-4 leukemia): > 100 µM
- TGI (TK-10 renal): > 100 µM
